{
  "source": "paper PMC7358406",
  "about": "“Molecular and Biochemical Characterization of Salt-Tolerant Trehalose-6-Phosphate Hydrolases Identified by Screening and Sequencing Salt-Tolerant Clones From the Metagenomic Library of the Gastrointestinal Tract” (Frontiers in Microbiology, 2020)",
  "key": {"[1]": {"system": "T1, rTRE_P2 (TRE_P2), trehalose-6-phosphate hydrolase", "T1 construct": "full length without signal peptide, gene 1638 bp", "test": "p-nitrophenol release, A410, initial rates", "type": "biochemical, Staphylococcus warneri", "details": "50 mM HEPES-NaOH pH 7.5 and 100 mM NaCl (standard assay), 30°C; pNPG 0.5-10 mM"}, "[2]": {"system": "T2, rTRE_P3 (TRE_P3), trehalose-6-phosphate hydrolase", "T2 construct": "full length without signal peptide, gene 1644 bp", "test": "p-nitrophenol release, A410, initial rates", "type": "biochemical, Staphylococcus warneri", "details": "50 mM HEPES-NaOH pH 7.5 and 100 mM NaCl (standard assay), 30°C; pNPG 0.5-10 mM"}},
  "data": [
    {"smiles": "O=[N+]([O-])c1ccc(O[C@H]2O[C@H](CO)[C@@H](O)[C@H](O)[C@H]2O)cc1", "note": "[p-nitrophenyl-α-D-glucopyranoside]", "values": [
      {"measurement": "Km", "setting": "[1]", "value": 15.6, "unit": "mM"},
      {"measurement": "Km", "setting": "[2]", "value": 12.5, "unit": "mM"}
    ]}
  ]
}
